Laboratory results from patent US10988792B2, “Methods for antimicrobial resistance determination” (bioMerieux, Inc., priority 2009, dated 2021).

How the values were obtained:
Assay type in all cases: cell-based
[1] = system: E. faecium #12406 (VRE); experiment: Vancomycin MIC by VITEK 2; details: read-out: vancomycin MIC by VITEK 2
[2] = system: E. faecium #13185 (VRE); experiment: Vancomycin MIC by VITEK 2; details: read-out: vancomycin MIC by VITEK 2
[3] = system: E. faecium 12406 (VRE); experiment: Co-culture with vancomycin and Sytox Green, intrinsic fluorescence and membrane integrity of pellet; details: for Microbial NADH fluorescence (Ex340 nm/Em440 nm) / Microbial tryptophan fluorescence (Ex300 nm/Em360 nm): 12406 (VRE)
Description: (§1) For each test strain, a 1 μL loopful of colonies from a 24-48 hour plate was suspended in 10-12 mL of BacT/ALERT SA media and cultured for 4-9 hours at 37° C. […] Aliquots of the cultures were removed for analysis immediately (T0) and after 1, 2.5 and 4 hours.
(§2) At the appropriate time-point, 0.5 mL aliquots of the cultures (0.5 mL) were overlaid on a density cushion composed of 24% w/v CsCl in 10 mM Hepes, pH 7.4 and 0.005% Pluronic F-108 contained in custom-made optical centrifugation tubes as disclosed in related U.S. patent application, Ser. No. 12/589,969, entitled “Separation Device for Use in the Separation, Characterization and/or Identification of Microorganisms”, filed Oct. 30, 2009. The tubes were sealed and centrifuged at 10,000 rpm for 2 minutes to separate intact microorganisms from the culture medium and unbound chemicals. The tubes were then placed into a custom-built tube holder directly onto a fiber optic probe built into the base. The probe was attached to a FluoroLog 3 spectrofluorimeter. The tube was interrogated through its UV-transparent base, and fluorescence and diffuse reflectance readings collected.

[4] = system: E. faecium 13185 (VRE); experiment: as above; details: for Microbial NADH fluorescence (Ex340 nm/Em440 nm) / Microbial tryptophan fluorescence (Ex300 nm/Em360 nm): 13185 (VRE)
Description: as §1, §2

[5] = system: E. faecium 12480 (VSE); experiment: as above; details: for Microbial NADH fluorescence (Ex340 nm/Em440 nm) / Microbial tryptophan fluorescence (Ex300 nm/Em360 nm): 12480 (VSE)
Description: For each test strain, a 1 μL loopful of colonies from a 24-48 hour plate was suspended in 10-12 mL of BacT/ALERT SA media and cultured for 4-9 hours at 37° C. Samples of each log phase culture were then incubated with 0, 0.25, 2.5 and 12.5 μg/mL of vancomycin-HCl in combination with 1:5000 dilution of stock Sytox Green, a viable cell impermeant DNA stain (Molecular Probes, cat #S7020), for a period of 4 hours at 37° C. Aliquots of the cultures were removed for analysis immediately (T0) and after 1, 2.5 and 4 hours.
as §2

[6] = VRE strain 12406, vancomycin 2.5 and 12.5 μg/mL
[7] = VRE strain 13185, vancomycin 2.5 and 12.5 μg/mL
[8] = VSE strain 12480, vancomycin 2.5 and 12.5 μg/mL

CN[C@H](CC(C)C)C(=O)N[C@H]1C(=O)N[C@@H](CC(N)=O)C(=O)N[C@H]2C(=O)N[C@H]3C(=O)N[C@H](C(=O)N[C@H](C(=O)O)c4cc(O)cc(O)c4-c4cc3ccc4O)[C@H](O)c3ccc(c(Cl)c3)Oc3cc2cc(c3O[C@@H]2O[C@H](CO)[C@@H](O)[C@H](O)[C@H]2O[C@H]2C[C@](C)(N)[C@H](O)[C@H](C)O2)Oc2ccc(cc2Cl)[C@H]1O [vancomycin]
MIC [1]: > 32 µg/mL
MIC [2]: > 32 µg/mL
Microbial NADH fluorescence (Ex340 nm/Em440 nm) ([3]; Vanc. 0.25 μg/mL, 1 hour): 616,448
Microbial tryptophan fluorescence (Ex300 nm/Em360 nm) ([3]; Vanc. 0.25 μg/mL, 1 hour): 666,793
Microbial NADH fluorescence (Ex340 nm/Em440 nm) ([3]; Vanc. 0.25 μg/mL, 2.5 hour): 703,451
Microbial tryptophan fluorescence (Ex300 nm/Em360 nm) ([3]; Vanc. 0.25 μg/mL, 2.5 hour): 679,880
Microbial NADH fluorescence (Ex340 nm/Em440 nm) ([3]; Vanc. 0.25 μg/mL, 4 hour): 598,853
Microbial tryptophan fluorescence (Ex300 nm/Em360 nm) ([3]; Vanc. 0.25 μg/mL, 4 hour): 800,658
Microbial NADH fluorescence (Ex340 nm/Em440 nm) ([3]; Vanc. 0.25 μg/mL, Zero time): 207,307
Microbial tryptophan fluorescence (Ex300 nm/Em360 nm) ([3]; Vanc. 0.25 μg/mL, Zero time): 463,942
Microbial tryptophan fluorescence (Ex300 nm/Em360 nm) ([3]; Vanc. 2.5 μg/mL, 1 hour): 560,948
Microbial NADH fluorescence (Ex340 nm/Em440 nm) ([3]; Vanc. 2.5 μg/mL, 2.5 hour): 573,926
Microbial tryptophan fluorescence (Ex300 nm/Em360 nm) ([3]; Vanc. 2.5 μg/mL, 2.5 hour): 656,768
Microbial NADH fluorescence (Ex340 nm/Em440 nm) ([3]; Vanc. 2.5 μg/mL, 4 hour): 931,786
Microbial tryptophan fluorescence (Ex300 nm/Em360 nm) ([3]; Vanc. 2.5 μg/mL, 4 hour): 651,886
Microbial NADH fluorescence (Ex340 nm/Em440 nm) ([3]; Vanc. 2.5 μg/mL, Zero time): 440,416
Microbial tryptophan fluorescence (Ex300 nm/Em360 nm) ([3]; Vanc. 2.5 μg/mL, Zero time): 425,860
Microbial NADH fluorescence (Ex340 nm/Em440 nm) ([3]; Vanc. 12.5 μg/mL, 1 hour): 207,520
Microbial tryptophan fluorescence (Ex300 nm/Em360 nm) ([3]; Vanc. 12.5 μg/mL, 1 hour): 433,269
Microbial NADH fluorescence (Ex340 nm/Em440 nm) ([3]; Vanc. 12.5 μg/mL, 2.5 hour): 279,170
Microbial tryptophan fluorescence (Ex300 nm/Em360 nm) ([3]; Vanc. 12.5 μg/mL, 2.5 hour): 560,607
Microbial NADH fluorescence (Ex340 nm/Em440 nm) ([3]; Vanc. 12.5 μg/mL, 4 hour): 765,401
Microbial tryptophan fluorescence (Ex300 nm/Em360 nm) ([3]; Vanc. 12.5 μg/mL, 4 hour): 738,461
Microbial NADH fluorescence (Ex340 nm/Em440 nm) ([3]; Vanc. 12.5 μg/mL, Zero time): 172,372
Microbial tryptophan fluorescence (Ex300 nm/Em360 nm) ([3]; Vanc. 12.5 μg/mL, Zero time): 463,985
Course of cellular NADH levels [3, 6]: rose after approximately 1 hour in culture and continued to rise over the 4-hour culture period
Course of cellular tryptophan levels [3, 6]: rose slowly over the 4-hour culture period
Delay in NADH production compared with the other VRE strain ([3]; VRE strain #12406, correlated with an influx of Sytox Green): longer delay in NADH production
Microbial NADH fluorescence (Ex340 nm/Em440 nm) ([4]; Vanc. 0.25 μg/mL, 1 hour): 708,442
Microbial tryptophan fluorescence (Ex300 nm/Em360 nm) ([4]; Vanc. 0.25 μg/mL, 1 hour): 557,453
Microbial NADH fluorescence (Ex340 nm/Em440 nm) ([4]; Vanc. 0.25 μg/mL, 2.5 hour): 496,545
Microbial tryptophan fluorescence (Ex300 nm/Em360 nm) ([4]; Vanc. 0.25 μg/mL, 2.5 hour): 809,317
Microbial NADH fluorescence (Ex340 nm/Em440 nm) ([4]; Vanc. 0.25 μg/mL, 4 hour): 627,392
Microbial tryptophan fluorescence (Ex300 nm/Em360 nm) ([4]; Vanc. 0.25 μg/mL, 4 hour): 880,899
Microbial NADH fluorescence (Ex340 nm/Em440 nm) ([4]; Vanc. 0.25 μg/mL, Zero time): 316,618
Microbial tryptophan fluorescence (Ex300 nm/Em360 nm) ([4]; Vanc. 0.25 μg/mL, Zero time): 546,862
Microbial NADH fluorescence (Ex340 nm/Em440 nm) ([4]; Vanc. 2.5 μg/mL, 1 hour): 237,463
Microbial tryptophan fluorescence (Ex300 nm/Em360 nm) ([4]; Vanc. 2.5 μg/mL, 1 hour): 569,043
Microbial NADH fluorescence (Ex340 nm/Em440 nm) ([4]; Vanc. 2.5 μg/mL, 2.5 hour): 965,305
Microbial tryptophan fluorescence (Ex300 nm/Em360 nm) ([4]; Vanc. 2.5 μg/mL, 2.5 hour): 489,661
Microbial NADH fluorescence (Ex340 nm/Em440 nm) ([4]; Vanc. 2.5 μg/mL, 4 hour): 782,908
Microbial tryptophan fluorescence (Ex300 nm/Em360 nm) ([4]; Vanc. 2.5 μg/mL, 4 hour): 868,768
Microbial NADH fluorescence (Ex340 nm/Em440 nm) ([4]; Vanc. 2.5 μg/mL, Zero time): 256,533
Microbial tryptophan fluorescence (Ex300 nm/Em360 nm) ([4]; Vanc. 2.5 μg/mL, Zero time): 531,239
Microbial tryptophan fluorescence (Ex300 nm/Em360 nm) ([4]; Vanc. 12.5 μg/mL, 1 hour): 579,537
Microbial NADH fluorescence (Ex340 nm/Em440 nm) ([4]; Vanc. 12.5 μg/mL, 2.5 hour): 775,629
Microbial tryptophan fluorescence (Ex300 nm/Em360 nm) ([4]; Vanc. 12.5 μg/mL, 2.5 hour): 537,067
Microbial NADH fluorescence (Ex340 nm/Em440 nm) ([4]; Vanc. 12.5 μg/mL, 4 hour): 710,100
Microbial tryptophan fluorescence (Ex300 nm/Em360 nm) ([4]; Vanc. 12.5 μg/mL, 4 hour): 782,106
Microbial NADH fluorescence (Ex340 nm/Em440 nm) ([4]; Vanc. 12.5 μg/mL, Zero time): 234,554
Microbial tryptophan fluorescence (Ex300 nm/Em360 nm) ([4]; Vanc. 12.5 μg/mL, Zero time): 537,160
Course of cellular NADH levels [4, 7]: rose after approximately 1 hour in culture and continued to rise over the 4-hour culture period
Course of cellular tryptophan levels [4, 7]: rose slowly over the 4-hour culture period
Microbial NADH fluorescence (Ex340 nm/Em440 nm) ([5]; Vanc. 0.25 μg/mL, 1 hour): 271,470
Microbial tryptophan fluorescence (Ex300 nm/Em360 nm) ([5]; Vanc. 0.25 μg/mL, 1 hour): 460,266
Microbial NADH fluorescence (Ex340 nm/Em440 nm) ([5]; Vanc. 0.25 μg/mL, 2.5 hour): 500,618
Microbial tryptophan fluorescence (Ex300 nm/Em360 nm) ([5]; Vanc. 0.25 μg/mL, 2.5 hour): 678,352
Microbial NADH fluorescence (Ex340 nm/Em440 nm) ([5]; Vanc. 0.25 μg/mL, 4 hour): 483,445
Microbial tryptophan fluorescence (Ex300 nm/Em360 nm) ([5]; Vanc. 0.25 μg/mL, 4 hour): 706,797
Microbial NADH fluorescence (Ex340 nm/Em440 nm) ([5]; Vanc. 0.25 μg/mL, Zero time): 184,649
Microbial tryptophan fluorescence (Ex300 nm/Em360 nm) ([5]; Vanc. 0.25 μg/mL, Zero time): 425,539
Microbial NADH fluorescence (Ex340 nm/Em440 nm) ([5]; Vanc. 2.5 μg/mL, 1 hour): 254,828
Microbial tryptophan fluorescence (Ex300 nm/Em360 nm) ([5]; Vanc. 2.5 μg/mL, 1 hour): 438,541
Microbial NADH fluorescence (Ex340 nm/Em440 nm) ([5]; Vanc. 2.5 μg/mL, 2.5 hour): 149,686
Microbial tryptophan fluorescence (Ex300 nm/Em360 nm) ([5]; Vanc. 2.5 μg/mL, 2.5 hour): 466,525
Microbial NADH fluorescence (Ex340 nm/Em440 nm) ([5]; Vanc. 2.5 μg/mL, 4 hour): 100,931
Microbial tryptophan fluorescence (Ex300 nm/Em360 nm) ([5]; Vanc. 2.5 μg/mL, 4 hour): 416,780
Microbial NADH fluorescence (Ex340 nm/Em440 nm) ([5]; Vanc. 2.5 μg/mL, Zero time): 221,692
Microbial tryptophan fluorescence (Ex300 nm/Em360 nm) ([5]; Vanc. 2.5 μg/mL, Zero time): 361,962
Microbial NADH fluorescence (Ex340 nm/Em440 nm) ([5]; Vanc. 12.5 μg/mL, 1 hour): 210,963
Microbial tryptophan fluorescence (Ex300 nm/Em360 nm) ([5]; Vanc. 12.5 μg/mL, 1 hour): 428,402
Microbial NADH fluorescence (Ex340 nm/Em440 nm) ([5]; Vanc. 12.5 μg/mL, 2.5 hour): 171,994
Microbial tryptophan fluorescence (Ex300 nm/Em360 nm) ([5]; Vanc. 12.5 μg/mL, 2.5 hour): 455,446
Microbial NADH fluorescence (Ex340 nm/Em440 nm) ([5]; Vanc. 12.5 μg/mL, 4 hour): 127,042
Microbial tryptophan fluorescence (Ex300 nm/Em360 nm) ([5]; Vanc. 12.5 μg/mL, 4 hour): 438,978
Microbial NADH fluorescence (Ex340 nm/Em440 nm) ([5]; Vanc. 12.5 μg/mL, Zero time): 178,982
Microbial tryptophan fluorescence (Ex300 nm/Em360 nm) ([5]; Vanc. 12.5 μg/mL, Zero time): 389,264
Course of cellular NADH levels [5, 8]: gradually declined over time
Course of cellular tryptophan levels [5, 8]: remained stable over time
